For experiment [1], the system named is KV2.1 wild-type base construct (hKv2.1-m7-c3). Kind of experiment: Alpha currents (Iα) of Kv2.1 WT base construct in Xenopus oocytes, two electrode voltage-clamp. It counts as cell-based, human. The following applies: 1 nM AgTx2, WT. As for the experimental part: (§1) The coding cDNAs of KV2.1 “wild-type” (hereinafter WT) base construct (hKv2.1-m7-c3 is human Kv2.1, residues 1-858, mutated to confer AgTx2 sensitivity and to remove extracellular cysteine residues) was synthesized (Entelchon GmbH) and cloned into the high expression vector pBSTA.
Transcripted cRNA was produced using the mMessage mMachine kit (Ambion Inc.). Two to four days past injection of cRNA into stage V-VI Xenopus oocytes (NASCO) potassium currents through the alpha pore (Iα) were recorded with the two electrode voltage-clamp technique making use of a TURBO TEC-05× amplifier (npi electronic GmbH). Currents were filtered at 10 kHz and sampled at 20 kHz. The bath solution contained (in mM): NaCl 96, KCl 2, CaCl2 1, MgCl2 1 and HEPES 5 (pH 7.5). Voltage-recording and current-injecting microelectrodes were filled with 3 M KCl and pulled to have resistances between 0.2 and 1 MΩ (see Stork et al., 2007). The pClamp software package v.10.1 (Molecular Devices, Inc.) was used for data acquisition and analysis.
For recording of alpha currents (Iα), 100 ms pulses were applied from ˜60 to +60 mV in 10 mV steps at 1 Hz from a holding potential of ˜80 mV to the Kv2.1 channel constructs to measure alpha currents (Iα). Passive leak currents were subtracted online using a P/4 procedure: pClamp software generates a series of scaled-down replica sweeps of the main stimulus waveform. […]

The test system of the next experiment is Kv2.1 R300S (R2S). Briefly: Alpha currents (Iα) of Kv2.1 R2S in Xenopus oocytes, two electrode voltage-clamp. It counts as cell-based, human. The following applies: 1 nM AgTx2, R2S.
Description: as §1
Mutations Kv2.1 R294N (hereinafter R0N), Kv2.1 R300S (hereinafter R2S), Kv2.1 R294C/R300S (hereinafter R0C/R2S), Kv2.1 R293S/R294S (hereinafter R-1S/R0S), Kv2.1 R293S/R294C (hereinafter R-1S/R0C), Kv2.1 R293S/R294S/R300S (hereinafter R-1S/R0S/R2S), Kv2.1 R293S/R294C/R300S (hereinafter R-1S/R0C/R2S) were introduced using the QuikChange® Lightning Site-Directed Mutagenesis Kit (Stratagene) with mutagenic primers according to the manufacturer's instructions. All constructs were checked by restriction site mapping and sequencing.
Transcripted cRNA was produced using the mMessage mMachine kit (Ambion Inc.). Two to four days past injection of cRNA into stage V-VI Xenopus oocytes (NASCO) potassium currents through the alpha pore (Iα) were recorded with the two electrode voltage-clamp technique making use of a TURBO TEC-05× amplifier (npi electronic GmbH). Currents were filtered at 10 kHz and sampled at 20 kHz. The bath solution contained (in mM): NaCl 96, KCl 2, CaCl2 1, MgCl2 1 and HEPES 5 (pH 7.5). […]

Experiment [2] addresses T1, Kv2.1 channel in pancreatic β-cells (Homo sapiens, UniProt Q14721).
T1 construct: host or cells: pancreatic β-cells (endogenous channel)
T1 sequence (Q14721 1-858): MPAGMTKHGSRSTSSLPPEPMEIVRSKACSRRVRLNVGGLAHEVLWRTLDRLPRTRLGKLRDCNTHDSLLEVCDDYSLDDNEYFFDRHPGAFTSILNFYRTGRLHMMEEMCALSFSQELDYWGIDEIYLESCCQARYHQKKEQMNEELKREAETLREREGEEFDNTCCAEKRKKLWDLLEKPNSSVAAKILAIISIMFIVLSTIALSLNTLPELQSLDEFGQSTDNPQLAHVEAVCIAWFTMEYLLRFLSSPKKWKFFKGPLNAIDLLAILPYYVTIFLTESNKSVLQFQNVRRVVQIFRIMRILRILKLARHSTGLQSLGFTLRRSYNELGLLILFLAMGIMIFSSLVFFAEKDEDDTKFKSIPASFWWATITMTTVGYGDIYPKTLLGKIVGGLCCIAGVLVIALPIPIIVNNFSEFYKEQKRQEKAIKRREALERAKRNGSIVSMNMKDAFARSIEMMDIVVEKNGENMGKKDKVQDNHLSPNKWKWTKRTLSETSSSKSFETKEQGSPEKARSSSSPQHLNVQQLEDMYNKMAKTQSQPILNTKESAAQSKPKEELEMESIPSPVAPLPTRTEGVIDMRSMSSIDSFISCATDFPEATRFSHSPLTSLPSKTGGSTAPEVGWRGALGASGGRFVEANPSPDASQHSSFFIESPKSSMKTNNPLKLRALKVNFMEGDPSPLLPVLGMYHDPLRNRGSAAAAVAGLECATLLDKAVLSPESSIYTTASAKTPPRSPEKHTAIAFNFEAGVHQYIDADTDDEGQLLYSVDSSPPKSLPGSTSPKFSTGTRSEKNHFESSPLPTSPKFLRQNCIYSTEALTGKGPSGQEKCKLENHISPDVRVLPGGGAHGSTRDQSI
The settings on record: cited from earlier work.

Take “Agitotoxin-2 (GVPINVSCTGSPQCIKPCKDAGMRFGKCMNRKCHCTPK) [AgTx2]”: the results for the “Mean inhibition of the maximal outward current at +60 mV” value (in experiment [1]; in the experiment with Kv2.1 R300S (R2S)) were 66.5±2.9% and 67.8±2.8%, respectively. Turning to “Guangxitoxin (EGECGGFWWKCGSGKPACCPKYVCSPKWGLCNFPMP) [GxTx-1E]”, the “Inhibits the Kv2.1 channel in pancreatic β-cells” value in experiment [2] is “nanomolar range”.
